Data reported in PubChem BioAssay AID1745844 (Carcinogenic Potency Database (CPDB), 2022).
“And” between values parts separate entries of the source, which are not always exact repeats. Identical values can stand only once. The source made the active and inactive calls. How the calls were made is not given here.

System: rodent lifetime carcinogenesis bioassay, tumor incidence TD50
Experiment: carcinogenic potency in animals, long-term in vivo studies, CPDB compilation (AID 1745844)

With CCCCC/C=C\C/C=C\CCCCCCCC(=O)O[C@H](COC(=O)CCCCCCCCCCCCCCC)COP(=O)([O-])OCC[N+](C)(C)C the carcinogen call (rat, strain Wistar, females, in feed, site: liver, lesion: nodular hyperplasia, dosed 104 weeks, study length 104 weeks) was “negative (inactive)” and the TD50 (rat, strain Wistar, males, in feed, site: liver, lesion: cholangioma, dosed 104 weeks, study length 104 weeks) was 42200 mg/kg/day (inactive).
For CC[C@@H]1NC(=O)[C@@H]2[C@H](Cl)[C@H](Cl)CN2C(=O)[C@H](CO)NC(=O)C[C@H](c2ccccc2)NC(=O)[C@H](CO)NC1=O, the TD50 (mouse, strain ddNi, males, in feed, site: liver, lesion: hepatoma, dosed 160 weeks, study length 160 weeks) was 99.5 mg/kg/day, the TD50 (mouse, strain ddNi, males, in feed, site: liver, lesion: liver-cell adenoma, dosed 160 weeks, study length 160 weeks) was 48.6 mg/kg/day and the TD50 (mouse, strain ddNi, males, in feed, site: liver, lesion: liver-cell carcinoma, dosed 160 weeks, study length 160 weeks) was 98.9 mg/kg/day. For the same molecule, the TD50 (mouse, strain ddNi, males, in feed, site: liver, lesion: several types, types named in the paper, dosed 160 weeks, study length 160 weeks) was 23.6 mg/kg/day.
CCOc1ccccc1C(N)=O was tested, and the TD50 (mouse, strain B6C3F1, females, in feed, site: liver, lesion: several types, types named in the paper, dosed 96 weeks, study length 100 weeks) was 3310 mg/kg/day and the TD50 (mouse, strain B6C3F1, males, in feed, site: liver, lesion: several types, types named in the paper, dosed 96 weeks, study length 100 weeks) was 513 mg/kg/day.
In the case of CCC=C(CC)[N+](=O)[O-], the TD50 (mouse, strain Swiss Webster, females, inhaled, site: lung, lesion: adenocarcinoma, dosed 62 weeks, study length 62 weeks) is reported as 0.363 mg/kg/day and 0.768 mg/kg/day, the TD50 (mouse, strain Swiss Webster, females, inhaled, site: lung, lesion: several types, types named in the paper, dosed 62 weeks, study length 62 weeks) is reported as 0.687 mg/kg/day and the TD50 (mouse, strain Swiss, both sexes, inhaled, site: lung, lesion: adenocarcinoma, dosed 62 weeks, study length 62 weeks) is reported as 0.346 mg/kg/day. The TD50 (rat, strain CFN, both sexes, inhaled, site: lung, lesion: undifferentiated carcinoma, dosed 158 weeks, study length 158 weeks) was 8.66 mg/kg/day.
With [N-]=[N+]=[N-] the TD50 (rat, strain Charles River CD (Sprague-Dawley), females, in feed, site: mammary gland, lesion: one or several types, types not named, dosed 78 weeks, study length 104 weeks) was 3.01 mg/kg/day, the TD50 (rat, strain Charles River CD (Sprague-Dawley), females, in feed, site: pituitary gland, lesion: chromophobe adenoma, dosed 78 weeks, study length 104 weeks) was 16.1 mg/kg/day (inactive) and the carcinogen call (rat, strain Charles River CD (Sprague-Dawley), males, in feed, site: pituitary gland, lesion: chromophobe adenoma, dosed 78 weeks, study length 104 weeks) was “negative (inactive)”. The TD50 (rat, strain Fischer 344, females, by gavage, site: any site (literature study), lesion: several types, types named in the paper, dosed 103 weeks, study length 104 weeks) was 19.1 mg/kg/day (inactive), the TD50 (rat, strain Fischer 344, males, by gavage, site: any site (literature study), lesion: several types, types named in the paper, dosed 103 weeks, study length 104 weeks) was 8.26 mg/kg/day and the TD50 (rat, strain Fischer 344, males, by gavage, site: testis, lesion: interstitial-cell adenoma, bilateral + interstitial-cell adenoma, dosed 103 weeks, study length 104 weeks) was 3.79 mg/kg/day (inactive).
With OC(c1ccc(Cl)cc1)(c1ccc(Cl)cc1)C(Cl)(Cl)Cl the carcinogen call (mouse, strain B6C3F1, females, in feed, site: any site (literature study), lesion: several types, types named in the paper, dosed 78 weeks, study length 91 weeks) was “negative (inactive)”, the TD50 (mouse, strain B6C3F1, males, in feed, site: any site (literature study), lesion: several types, types named in the paper, dosed 78 weeks, study length 91 weeks) was 59.2 mg/kg/day and the TD50 (mouse, strain B6C3F1, males, in feed, site: liver, lesion: hepatocellular adenoma + hepatocellular carcinoma + neoplastic nodule, dosed 78 weeks, study length 91 weeks) was 32.9 mg/kg/day. The TD50 (mouse, strain B6C3F1, males, in feed, site: liver, lesion: hepatocellular adenoma + hepatocellular carcinoma, dosed 78 weeks, study length 91 weeks) was 32.9 mg/kg/day, the TD50 (mouse, strain B6C3F1, males, in feed, site: liver, lesion: hepatocellular carcinoma, dosed 78 weeks, study length 91 weeks) was 34.8 mg/kg/day and the TD50 (mouse, strain B6C3F1, males, in feed, site: lung, lesion: alveolar/bronchiolar adenoma + alveolar/bronchiolar carcinoma, dosed 78 weeks, study length 91 weeks) was 616 mg/kg/day. For the same molecule, the carcinogen call (rat, strain Osborne-Mendel, females, in feed, site: any site (literature study), lesion: several types, types named in the paper, dosed 78 weeks, study length 111 weeks) was “negative (inactive)”, the carcinogen call (rat, strain Osborne-Mendel, males, in feed, site: any site (literature study), lesion: several types, types named in the paper, dosed 78 weeks, study length 110 weeks) was “negative (inactive)” and the TD50 (rat, strain Osborne-Mendel, males, in feed, site: liver, lesion: hepatocellular adenoma + hepatocellular carcinoma + neoplastic nodule, dosed 78 weeks, study length 110 weeks) was 517 mg/kg/day.
For CC1CN(N=O)C(=O)O1 (centres undefined), the TD50 (hamster, strain Syrian Golden, females, by gavage, site: forestomach, lesion: several types, types named in the paper, dosed 28 weeks, study length 60 weeks) was 0.172 mg/kg/day.
In the case of CN(N=O)C(=O)Nc1nc2ccccc2s1, the TD50 (rat, strain Wistar, both sexes, by gavage, site: forestomach, lesion: papilloma, dosed 51 weeks, study length 58 weeks) is reported as 3.75 mg/kg/day, the TD50 (rat, strain Wistar, both sexes, by gavage, site: forestomach, lesion: several types, types named in the paper, dosed 51 weeks, study length 58 weeks) is reported as 1.13 mg/kg/day and the TD50 (rat, strain Wistar, both sexes, by gavage, site: forestomach, lesion: squamous-cell carcinoma, dosed 51 weeks, study length 58 weeks) is reported as 1.48 mg/kg/day. The TD50 (rat, strain Wistar, both sexes, by gavage, site: liver, lesion: several types, types named in the paper, dosed 51 weeks, study length 58 weeks) was 11.3 mg/kg/day.
C=COC(C)=O showed a TD50 (mouse, strain Charles River CD1, males, inhaled, site: lung, lesion: squamous-cell carcinoma, dosed 104 weeks, study length 104 weeks) of 32000 mg/kg/day, a TD50 (mouse, strain Swiss, females, in drinking water, site: Zymbal's gland, lesion: carcinoma, dosed 78 weeks, study length 151 weeks) of 36000 mg/kg/day and a TD50 (mouse, strain Swiss, females, in drinking water, site: any site (literature study), lesion: benign tumor, dosed 78 weeks, study length 151 weeks) of 2030 mg/kg/day. The TD50 (mouse, strain Swiss, females, in drinking water, site: any site (literature study), lesion: malignant tumor, dosed 78 weeks, study length 151 weeks) was 3440 mg/kg/day, the TD50 (mouse, strain Swiss, females, in drinking water, site: esophagus, lesion: acanthoma, dosed 78 weeks, study length 151 weeks) was 36000 mg/kg/day and the TD50 (mouse, strain Swiss, females, in drinking water, site: esophagus, lesion: squamous-cell carcinoma, dosed 78 weeks, study length 151 weeks) was 5640 mg/kg/day. For the same molecule, the TD50 (mouse, strain Swiss, females, in drinking water, site: forestomach, lesion: acanthoma, dosed 78 weeks, study length 151 weeks) was 6850 mg/kg/day, the TD50 (mouse, strain Swiss, females, in drinking water, site: forestomach, lesion: squamous-cell carcinoma, dosed 78 weeks, study length 151 weeks) was 11700 mg/kg/day and the TD50 (mouse, strain Swiss, females, in drinking water, site: lung, lesion: adenocarcinoma, dosed 78 weeks, study length 151 weeks) was 29900 mg/kg/day. For the same molecule, the TD50 (mouse, strain Swiss, females, in drinking water, site: lung, lesion: adenoma, dosed 78 weeks, study length 151 weeks) was 11700 mg/kg/day, the TD50 (mouse, strain Swiss, females, in drinking water, site: lung, lesion: several types, types named in the paper, dosed 78 weeks, study length 151 weeks) was 7640 mg/kg/day and the TD50 (mouse, strain Swiss, females, in drinking water, site: oral cavity, lesion: squamous-cell carcinoma, dosed 78 weeks, study length 151 weeks) was 36000 mg/kg/day. The TD50 (mouse, strain Swiss, females, in drinking water, site: stomach, lesion: adenocarcinoma, dosed 78 weeks, study length 151 weeks) was 36000 mg/kg/day, the TD50 (mouse, strain Swiss, females, in drinking water, site: tongue, lesion: squamous-cell carcinoma, dosed 78 weeks, study length 151 weeks) was 8760 mg/kg/day and the TD50 (mouse, strain Swiss, females, in drinking water, site: uterus, lesion: adenocarcinoma, dosed 78 weeks, study length 151 weeks) was 5570 mg/kg/day. For the same molecule, the TD50 (mouse, strain Swiss, females, in drinking water, site: uterus, lesion: leiomyoma, dosed 78 weeks, study length 151 weeks) was 26100 mg/kg/day, the TD50 (mouse, strain Swiss, females, in drinking water, site: uterus, lesion: leiomyosarcoma, dosed 78 weeks, study length 151 weeks) was 26100 mg/kg/day and the TD50 (mouse, strain Swiss, females, in drinking water, site: uterus, lesion: malignant tumor, dosed 78 weeks, study length 151 weeks) was 3920 mg/kg/day. It also gave a TD50 (mouse, strain Swiss, males, in drinking water, site: any site (literature study), lesion: benign tumor, dosed 78 weeks, study length 135 weeks) of 6040 mg/kg/day, a TD50 (mouse, strain Swiss, males, in drinking water, site: any site (literature study), lesion: malignant tumor, dosed 78 weeks, study length 135 weeks) of 552 mg/kg/day and a TD50 (mouse, strain Swiss, males, in drinking water, site: forestomach, lesion: acanthoma, dosed 78 weeks, study length 135 weeks) of 9330 mg/kg/day. The TD50 (mouse, strain Swiss, males, in drinking water, site: lung, lesion: adenocarcinoma, dosed 78 weeks, study length 135 weeks) was 68200 mg/kg/day, the TD50 (mouse, strain Swiss, males, in drinking water, site: lung, lesion: adenoma, dosed 78 weeks, study length 135 weeks) was 5750 mg/kg/day and the TD50 (mouse, strain Swiss, males, in drinking water, site: lung, lesion: several types, types named in the paper, dosed 78 weeks, study length 135 weeks) was 28000 mg/kg/day. For the same molecule, the TD50 (mouse, strain Swiss, males, in drinking water, site: oral cavity, lesion: squamous-cell carcinoma, dosed 78 weeks, study length 135 weeks) was 9330 mg/kg/day, the TD50 (mouse, strain Swiss, males, in drinking water, site: stomach, lesion: adenocarcinoma, dosed 78 weeks, study length 135 weeks) was 9330 mg/kg/day and the TD50 (mouse, strain Swiss, males, in drinking water, site: tongue, lesion: squamous-cell carcinoma, dosed 78 weeks, study length 135 weeks) was 9330 mg/kg/day. It also gave a TD50 (rat, strain Charles River CD (Sprague-Dawley), females, inhaled, site: larynx, lesion: squamous-cell carcinoma, dosed 104 weeks, study length 104 weeks) of 9050 mg/kg/day, a TD50 (rat, strain Charles River CD (Sprague-Dawley), females, inhaled, site: nose, lesion: squamous-cell carcinoma, dosed 104 weeks, study length 104 weeks) of 2220 mg/kg/day and a TD50 (rat, strain Charles River CD (Sprague-Dawley), males, inhaled, site: nose, lesion: benign tumor, dosed 104 weeks, study length 104 weeks) of 1240 mg/kg/day. It also gave a TD50 (rat, strain Charles River CD (Sprague-Dawley), males, inhaled, site: nose, lesion: carcinoma, in situ, dosed 104 weeks, study length 104 weeks) of 6310 mg/kg/day, a TD50 (rat, strain Charles River CD (Sprague-Dawley), males, inhaled, site: nose, lesion: malignant tumor, dosed 104 weeks, study length 104 weeks) of 2080 mg/kg/day and a TD50 (rat, strain Charles River CD (Sprague-Dawley), males, inhaled, site: nose, lesion: papilloma, inverted, dosed 104 weeks, study length 104 weeks) of 1550 mg/kg/day. It also gave a TD50 (rat, strain Charles River CD (Sprague-Dawley), males, inhaled, site: nose, lesion: several types, types named in the paper, dosed 104 weeks, study length 104 weeks) of 758 mg/kg/day, a TD50 (rat, strain Charles River CD (Sprague-Dawley), males, inhaled, site: nose, lesion: squamous-cell carcinoma, dosed 104 weeks, study length 104 weeks) of 3140 mg/kg/day and a TD50 (rat, strain Fischer 344, females, in drinking water, site: liver, lesion: neoplastic nodule, dosed 100 weeks, study length 130 weeks) of 488 mg/kg/day. The TD50 (rat, strain Fischer 344, females, in drinking water, site: thyroid gland, lesion: c-cell adenoma, dosed 100 weeks, study length 130 weeks) was 420 mg/kg/day, the TD50 (rat, strain Fischer 344, females, in drinking water, site: thyroid gland, lesion: c-cell carcinoma, dosed 100 weeks, study length 130 weeks) was 25500 mg/kg/day and the TD50 (rat, strain Fischer 344, females, in drinking water, site: uterus, lesion: adenocarcinoma, dosed 100 weeks, study length 130 weeks) was 494 mg/kg/day. The TD50 (rat, strain Fischer 344, males, in drinking water, site: any site (literature study), lesion: several types, types named in the paper, dosed 100 weeks, study length 130 weeks) was 57.7 mg/kg/day, the TD50 (rat, strain Fischer 344, males, in drinking water, site: liver, lesion: neoplastic nodule, dosed 100 weeks, study length 130 weeks) was 132 mg/kg/day and the carcinogen call (rat, strain Fischer 344, males, in drinking water, site: thyroid gland, lesion: c-cell carcinoma, dosed 100 weeks, study length 130 weeks) was “positive”.
